Results published in patent US7655665B2, “Nitromethylene derivatives and their use” (East China University of Science and Technology, priority 2004, dated 2010).

Tests used:
Aphis craccivoral = test: Insecticidal activity against Aphis craccivoral by immersing (dipping aphids on bean sprout); format: in vivo; conditions: 23° C.
Outline: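 Wingless adult A. craccivora feeding on bean sprouts dipped 5 seconds in compound at 500 ug/mL (0.2 mL/L Triton X-100 aqueous), then held at 23 °C. Mortality counted after 24 hours, three replicates, vehicle-only control.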

Nilaparvata lugens = test: Insecticidal activity against Nilaparvata lugens (planthopper) by spraying; format: in vivo; conditions: 500 ppm; for mortality (%) (500 ppm) Nilaparvata lugens: spraying 2 ml, counted after 24 hours; for mortality (%) (500 ppm) Nilaparvata-lugens: spraying 2 ml per tumbler, killed counted after 24 hours
Outline: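 Ten planthoppers per tumbler were introduced 6 hours before spraying with 2 ml of test solution, with clean water as blank control. Each treatment had 3 replicates, and three series were run. Mortality was counted after 24 hours.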

[1] = 500 ppm, immersing (dipped 5 seconds), counted after 24 hours
[2] = 500 ppm (500 ug/mL dilution), dipped 5 seconds, killed aphis counted after 24 hours

SMILES	mortality (%) (500 ppm) Aphis (Aphis craccivoral; [1])	mortality (%) (500 ppm) Nilaparvata lugens (Nilaparvata lugens)	mortality (%) (500 ppm) Aphis (Aphis craccivoral; [2])	mortality (%) (500 ppm) Nilaparvata-lugens (Nilaparvata lugens)
O=C(OC1CCC([N+](=O)[O-])=C2N(Cc3cnc(Cl)s3)CCN21)c1cccnc1 (stereo not shown) [Compound 159]	0%	8%		
CCCCOC1CCC([N+](=O)[O-])=C2N(Cc3ccc(Cl)nc3)CCCN21 (stereo not shown) [Compound 79]	52%	61%		
CC(C)COC1CCC([N+](=O)[O-])=C2N(Cc3cnc(Cl)s3)CCN21 (racemic) [Compound 32]	37%	23%		
CC(C)COC1CCC([N+](=O)[O-])=C2N(Cc3ccc(Cl)nc3)CCCN21 (stereo not shown) [Compound 80]	23%	34%		
C=CCOC1CCC([N+](=O)[O-])=C2N(Cc3ccc(Cl)nc3)CCN21 (racemic) [Compound 19]	35%	78%		
CCCCN=C1CCC([N+](=O)[O-])=C2N(Cc3cnc(Cl)s3)CCN12 [Compound 216]			66%	98%
CC(C)(C)CSC1CCC([N+](=O)[O-])=C2N(Cc3ccc(Cl)nc3)CCN21 (stereo not shown) [Compound 147]	56%	99%		
O=C(OC1CCC([N+](=O)[O-])=C2N(Cc3ccc(Cl)nc3)CCN21)c1ccccc1F (stereo not shown) [Compound 129]	0%	34%		
CC(C)CCSC1CCC([N+](=O)[O-])=C2N(Cc3cnc(Cl)s3)CCN21 (stereo not shown) [Compound 183]			23%	34%
O=C(OC1CCC([N+](=O)[O-])=C2N(Cc3cnc(Cl)s3)CCN21)c1ccccc1 (stereo not shown) [Compound 161]	3%	5%		
C=CCOC1CCC([N+](=O)[O-])=C2N(Cc3cnc(Cl)s3)CCN21 (racemic) [Compound 41]	89%	100%		
CCCCN=C1CCC([N+](=O)[O-])=C2N(Cc3ccc(Cl)nc3)CCCN12 [Compound 207]			14%	45%
CCCCOC1CCC([N+](=O)[O-])=C2N(Cc3cnc(Cl)s3)CCN21 (racemic) [Compound 31]	56%	35%		
O=[N+]([O-])C1=C2N(CC3CCOC3)CCCN2C(O)CC1 (stereo not shown) [Compound 99]	6%	7%		
COCCSC1CCC([N+](=O)[O-])=C2N(Cc3ccc(Cl)nc3)CCN21 (stereo not shown) [Compound 148]	67%	89%		
O=C(OC1CCC([N+](=O)[O-])=C2N(Cc3ccc(Cl)nc3)CCN21)c1cc(F)c(F)c([N+](=O)[O-])c1F (stereo not shown) [Compound 130]	23%	67%		
O=C(OC1CCC([N+](=O)[O-])=C2N(Cc3ccc(Cl)nc3)CCN21)c1cc(F)c(Cl)cc1Cl (stereo not shown) [Compound 125]	67%	92%		
CCOCCSC1CCC([N+](=O)[O-])=C2N(Cc3ccc(Cl)nc3)CCN21 (stereo not shown) [Compound 149]	98%	100%		
CCCOC1CCC([N+](=O)[O-])=C2N(CC3CCOC3)CCCN21 (stereo not shown) [Compound 104]	3%	24%		
O=[N+]([O-])C1=C2N(Cc3cnc(Cl)s3)CCN2C(OC(C(F)(F)F)C(F)(F)F)CC1 (racemic) [Compound 30]	58%	98%		
O=[N+]([O-])C1=C2N(Cc3ccc(Cl)nc3)CCCN2C(=NCCCl)CC1 [Compound 204]			46%	78%
CCCC(C)SC1CCC([N+](=O)[O-])=C2N(Cc3ccc(Cl)nc3)CCN21 (stereo not shown) [Compound 146]	35%	97%		
CC(C)OC1CCC([N+](=O)[O-])=C2N(CC3CCOC3)CCN21 (stereo not shown) [Compound 51]	34%	23%		
O=[N+]([O-])C1=C2N(CC3CCOC3)CCCN2C(OCCCl)CC1 (stereo not shown) [Compound 102]	0%	89%		
CCCCSC1CCC([N+](=O)[O-])=C2N(Cc3ccc(Cl)nc3)CCN21 (stereo not shown) [Compound 139]	34%	78%		
CCC(C)OC1CCC([N+](=O)[O-])=C2N(CC3CCOC3)CCCN21 (stereo not shown) [Compound 109]	2%	10%		
O=[N+]([O-])C1=C2N(Cc3ccc(Cl)nc3)CCN2C(SC(C(F)(F)F)C(F)(F)F)CC1 (stereo not shown) [Compound 138]	45%	98%		

SMILES	mortality (%) (500 ppm) Aphis (Aphis craccivoral; [1])	mortality (%) (500 ppm) Nilaparvata lugens (Nilaparvata lugens)	mortality (%) (500 ppm) Aphis (Aphis craccivoral; [2])	mortality (%) (500 ppm) Nilaparvata-lugens (Nilaparvata lugens)
O=[N+]([O-])C1=C2N(Cc3cnc(Cl)s3)CCCN2C(=NCCCl)CC1 [Compound 223]			5%	76%
O=[N+]([O-])C1=C2N(Cc3ccc(Cl)nc3)CCCN2C(OC(C(F)(F)F)C(F)(F)F)CC1 (stereo not shown) [Compound 78]	68%	51%		
CCCCN=C1CCC([N+](=O)[O-])=C2N(Cc3cnc(Cl)s3)CCCN12 [Compound 224]			45%	66%
O=C(OC1CCC([N+](=O)[O-])=C2N(Cc3cnc(Cl)s3)CCN21)C(F)(F)F (stereo not shown) [Compound 155]	48%	90%		
CCSC1CCC([N+](=O)[O-])=C2N(Cc3ccc(Cl)nc3)CCN21 (stereo not shown) [Compound 133]	100%	100%		
O=[N+]([O-])C1=C2N(Cc3cnc(Cl)s3)CCCN2C(OCCCl)CC1 (stereo not shown) [Compound 88]	23%	34%		
O=[N+]([O-])C1=C2N(Cc3cnc(Cl)s3)CCN2C(O)CC1 (racemic) [Compound 23]	87%	100%		
CC(C)(C)CSC1CCC([N+](=O)[O-])=C2N(Cc3cnc(Cl)s3)CCN21 (stereo not shown) [Compound 185]			36%	86%
CCCCCN=C1CCC([N+](=O)[O-])=C2N(Cc3cnc(Cl)s3)CCN12 [Compound 218]			45%	67%
CC(C)CCOC1CCC([N+](=O)[O-])=C2N(Cc3cnc(Cl)s3)CCN21 (racemic) [Compound 37]	56%	64%		
CCSC1CCC([N+](=O)[O-])=C2N(Cc3cnc(Cl)s3)CCN21 (stereo not shown) [Compound 172]			100%	100%
O=C(OC1CCC([N+](=O)[O-])=C2N(Cc3ccc(Cl)nc3)CCN21)C(Cl)(Cl)Cl (stereo not shown) [Compound 115]	0%	33%		
CCCOC1CCC([N+](=O)[O-])=C2N(Cc3ccc(Cl)nc3)CCCN21 (stereo not shown) [Compound 76]	100%	100%		
CC(=O)OC1CCC([N+](=O)[O-])=C2N(Cc3cnc(Cl)s3)CCN21 (stereo not shown) [Compound 152]	3%	0%		
CC(C)(C)COC1CCC([N+](=O)[O-])=C2N(CC3CCOC3)CCN21 (stereo not shown) [Compound 62]	12%	23%		
CCOCCN=C1CCC([N+](=O)[O-])=C2N(Cc3ccc(Cl)nc3)CCN12 [Compound 200]			45%	78%
O=C(OC1CCC([N+](=O)[O-])=C2N(Cc3ccc(Cl)nc3)CCN21)c1cc(F)c(F)cc1F (stereo not shown) [Compound 127]	45%	78%		
CC(C)OC1CCC([N+](=O)[O-])=C2N(Cc3cnc(Cl)s3)CCN21 (racemic) [Compound 29]	100%	100%		
CC1CC(O)N2CCN(Cc3ccc(Cl)nc3)C2=C1[N+](=O)[O-] (stereo not shown) [Compound 69]	45%	56%		
C#CCOC1CCC([N+](=O)[O-])=C2N(CC3CCOC3)CCN21 (stereo not shown) [Compound 65]	47%	34%		
CC(C)(C)COC1CCC([N+](=O)[O-])=C2N(Cc3cnc(Cl)s3)CCN21 (racemic) [Compound 39]	24%	35%		
O=[N+]([O-])C1=C2N(Cc3cnc(Cl)s3)CCN2C(OC2CCCCC2)CC1 (racemic) [Compound 40]	45%	67%		
CCN=C1CCC([N+](=O)[O-])=C2N(Cc3ccc(Cl)nc3)CCCN12 [Compound 203]			92%	100%
O=C(OC1CCC([N+](=O)[O-])=C2N(Cc3ccc(Cl)nc3)CCN21)c1ccccn1 (stereo not shown) [Compound 121]	0%	8%		
O=C(OC1CCC([N+](=O)[O-])=C2N(Cc3cnc(Cl)s3)CCN21)c1ccc(C(F)(F)F)cc1 (stereo not shown) [Compound 165]			90%	100%
O=C(OC1CCC([N+](=O)[O-])=C2N(Cc3ccc(Cl)nc3)CCN21)c1ccc(C(F)(F)F)cc1 (stereo not shown) [Compound 126]	93%	100%		
